ChEMBL document CHEMBL1201862, “PubChem BioAssay data set” (2004)
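Cells were grown in 96-well plates and exposed to each compound for 48 hours at five concentrations; endpoints were interpolated linearly between bracketing concentrations, or set to the highest concentration if not reached. Abbreviation: GI50, concentration required for 50% inhibition of growth.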 Activity calls are given as the source filed them. No stated cut-off is given here; in the data, active = GI50 up to about 1.1 µM and inactive = higher.

Tests used:
Assay in all cases: inhibition of tumour cell growth, NCI panel, 48 h
KM-20L2 = test system: KM-20L2
DMS-273 = test system: DMS-273
786-0 = test system: 786-0
HT-29 = test system: HT-29
SNB-19 = test system: SNB-19
OVCAR-8 = test system: OVCAR-8
HCT-15 = test system: HCT-15
CAKI-1 = test system: CAKI-1
SN12C = test system: SN12C
UO-31 = test system: UO-31
DMS-114 = test system: DMS-114
A498 = test system: A498
COLO 205 = test system: COLO 205
LXFL 529 = test system: LXFL 529
HOP-18 = test system: HOP-18
HCT-116 = test system: HCT-116
MDA-MB-435 = test system: MDA-MB-435
DU-145 = test system: DU-145
SK-MEL-2 = test system: SK-MEL-2
SF-295 = test system: SF-295

| SMILES | GI50 (KM-20L2) | GI50 (DMS-273) | GI50 (786-0) | GI50 (HT-29) | GI50 (SNB-19) | GI50 (OVCAR-8) | GI50 (HCT-15) [µM] | GI50 (CAKI-1) | GI50 (SN12C) | GI50 (UO-31) | GI50 (DMS-114) | GI50 (A498) | GI50 (COLO 205) | GI50 (LXFL 529) | GI50 (HOP-18) | GI50 (HCT-116) | GI50 (MDA-MB-435) | GI50 (DU-145) | GI50 (SK-MEL-2) | GI50 (SF-295) |
| --- | --- | --- | --- | --- | --- | --- | --- | --- | --- | --- | --- | --- | --- | --- | --- | --- | --- | --- | --- | --- |
| Cc1ccc(S(=O)(=O)NC2CCCCO2)cc1 (stereo not drawn) | > 100 µM (inactive) | > 100 µM (inactive) | > 100 µM (inactive) | > 100 µM (inactive) | > 100 µM (inactive) | > 100 µM (inactive) | > 100 | > 100 µM (inactive) | > 100 µM (inactive) | > 100 µM (inactive) | > 100 µM (inactive) | > 100 µM (inactive) | > 100 µM (inactive) | > 100 µM (inactive) | > 100 µM (inactive) | > 100 µM (inactive) |  |  |  |  |
| NCc1ccc(O)c(O)c1O | 30.2 µM (inactive) | 16.9 µM (inactive) | 15.9 µM (inactive) | 16.9 µM (inactive) | 54.5 µM (inactive) | 23.9 µM (inactive) | 24.7 | 29.3 µM (inactive) | 20 µM (inactive) | 59.7 µM (inactive) | 18.8 µM (inactive) | 75.3 µM (inactive) | 19.2 µM (inactive) | 16.8 µM (inactive) | > 56.8 µM (inactive) | 16.7 µM (inactive) | 18 µM (inactive) | 62.5 µM (inactive) | 22.5 µM (inactive) | 25.7 µM (inactive) |
| O=C(CNc1nncs1)NO | > 100 µM (inactive) | > 100 µM (inactive) | > 100 µM (inactive) | 84.3 µM (inactive) | > 100 µM (inactive) | > 100 µM (inactive) | > 100 |  | > 100 µM (inactive) | > 100 µM (inactive) | 54.3 µM (inactive) | > 100 µM (inactive) | > 100 µM (inactive) | > 100 µM (inactive) | > 100 µM (inactive) | > 100 µM (inactive) |  |  | > 100 µM (inactive) | > 100 µM (inactive) |
| CN[C@H](C)[C@@H](OC)c1ccccc1 | > 100 µM (inactive) | > 100 µM (inactive) | > 100 µM (inactive) | > 100 µM (inactive) | > 100 µM (inactive) | > 100 µM (inactive) | > 100 | > 100 µM (inactive) | > 100 µM (inactive) | > 100 µM (inactive) | > 100 µM (inactive) |  | > 100 µM (inactive) | > 100 µM (inactive) | > 100 µM (inactive) | > 100 µM (inactive) |  |  | > 100 µM (inactive) | > 100 µM (inactive) |
| C=Cc1cncc(C#N)c1CCc1c(C#N)cncc1C=C | > 10 µM (inactive) | > 10 µM (inactive) | > 10 µM (inactive) | > 10 µM (inactive) | > 10 µM (inactive) | > 10 µM (inactive) | > 10 | 63.2 µM (inactive) | > 10 µM (inactive) | > 10 µM (inactive) | > 10 µM (inactive) | > 10 µM (inactive) | > 10 µM (inactive) | > 10 µM (inactive) | > 10 µM (inactive) | > 10 µM (inactive) |  |  | > 10 µM (inactive) | > 10 µM (inactive) |
| Cc1ccc(C)c(NC(=O)c2cccc([N+](=O)[O-])c2O)c1 | 24.6 µM (inactive) | 24.1 µM (inactive) | 44.1 µM (inactive) | 26.1 µM (inactive) | 34.4 µM (inactive) | 32.1 µM (inactive) | 28.8 | 30.8 µM (inactive) | 27.2 µM (inactive) | 16.5 µM (inactive) | 15.1 µM (inactive) | 24 µM (inactive) | 17.3 µM (inactive) | 35.5 µM (inactive) | 5.7 µM (inactive) | 23.1 µM (inactive) |  |  |  | 18.4 µM (inactive) |
| N#CC(C#N)=Cc1cccc(Oc2ccccc2)c1 | 37.4 µM (inactive) | 19 µM (inactive) | 18.6 µM (inactive) | 22.7 µM (inactive) | 22 µM (inactive) | 19.1 µM (inactive) | 35.1 | 25.6 µM (inactive) | 22.5 µM (inactive) | 15.9 µM (inactive) | 26.2 µM (inactive) | > 63.2 µM (inactive) | 29 µM (inactive) | 18.5 µM (inactive) | 16.7 µM (inactive) | 17.1 µM (inactive) |  |  | 21.2 µM (inactive) | 20.2 µM (inactive) |
